In patent US20200407382A1, “POLYMORPHIC FORMS OF (9-[(R)-2-[[(S)-[[(S)-1-(ISOPROPOXYCARBONYL)ETHYL]AMINO]PHENOXY PHOSPHINYL]METHOXY]PROPYL] ADENINE AND PHARMACEUTICALLY ACCEPTABLE SALTS THEREOF” (CIPLA LIMITED, priority 2017, published 2020):

Protocol: FIG. 10 illustrates a dynamic vapor sorption (DVS) isotherm profile of Form C4 of (9-[(R)-2-[[(S)-[[(S)-1-(isopropoxycarbonyl)ethyl]amino] phenoxyphosphinyl] methoxy]propyl] adenine hemifumarate , according to another embodiment. For the DVS measurement a sample of crystalline Form C4 was cycled through changing humidity conditions to determine its hygroscopicity. The sample was analyzed using a Surface Measurement System DVS-1 Dynamic Vapor Sorption System. About 100 mg of crystalline Form C4 was placed into a mesh vapor sorption balance pan and loaded into a dynamic vapor sorption balance as part of the
Surface Measurement System. Data was collected in 1-minute intervals. Nitrogen was used as the carrier gas. The sampled crystalline Form C4 was subjected to a ramping profile from 0-95% relative humidity (RH) at 5 and 10% increments, maintaining the sample at each step until a stable weight had been achieved (99.5% step completion). After completion of the Sorption cycle, the sample was dried using the same procedure, but all the way down to 95% RH to 30% RH (10% RH interval) and from 30% RH to 5% RH (5% RH interval). The weight change during the Sorption/desorption cycles were plotted, allowing for the hygroscopic nature of the sample to be determined.
• 1. The hygroscopicity was studied at 25° C. using an SMS DVS intrinsic analyser. • 2. About 100 mg of sample was placed in a tared sample holder at an initial ambient room humidity. • 3. A total wet/dry nitrogen flow rate of 270 cc/min was used throughout the study. • 4. Solids were studied by performing one full cycle of the following program: 300 minutes of drying at 25° C. under dry N2, followed by settings of 0, 5, 10, 15, 20, 25, 30, 40, 50, 60, 70, 80, 90 and 95% RH, with exposure time at each humidity set point dependent upon 99.5% confidence in the F1 fit model or 60 minutes. The maximum time allowed at any one humidity set point was 60 minutes. Followed by decreasing 95% RH to 30% RH (10% RH interval) and from 30% RH to 5% RH (5% RH interval). […]. The sample was maintained under dry N2 after the cycle was completed. • 5. Percent weight gain was calculated based on the dry weight basis.

In the case of CC(C)OC(=O)[C@H](C)N[P@](=O)(CO[C@H](C)Cn1cnc2c(N)ncnc21)Oc1ccccc1 [Form C4, (9-[(R)-2-[[(S)-[[(S)-1-(isopropoxycarbonyl)ethyl]amino]phenoxyphosphinyl]methoxy]propyl]adenine hemifumarate], the “hygroscopicity (DVS isotherm)” value (25° C., 0-95% RH sorption/desorption cycles) is reported as “non-hygroscopic”, the “hysteresis between sorption and desorption cycles” value (DVS, 0-95% RH) is reported as “very small hysteresis” and the “change of crystalline form during DVS (XRPD post DVS vs pre-DVS)” value (XRPD pattern post DVS analysis compared with FIG. 4) is reported as “no change in the crystalline Form C4”. For the same compound, the “increase in mass during the Sorption cycle” value (between 0% and 95% RH, 25° C.) was “about 1.7%”.
